# Source: patent US11028067B2, “Heteroarylsulfonyl-substituted pyridines and their use in the treatment of cancer” (Oblique Therapeutics AB, priority 2017, dated 2021)
# Assays:
# MDA-MB-231 cells = assay: Breast cancer cell viability assay (Alamar Blue); assay type: cell-based; conditions: Homo sapiens, 72 hrs, 10% FBS media containing 25 nM selenite
# Method: (§1) MDA-MB-231 cells were plated 2000 cells/well in 96-well black optical plates in the presence of 10% FBS media containing 25 nM selenite. The following day cells were treated with various concentrations of compounds (0.1% DMSO final) and incubated for 72 hrs. After the incubation Alamar Blue reagent was added to each well and incubated for additional 3 hrs. Fluorescence was read ex: 530 nm/em: 590 nm, and percent of viability was determined using DMSO vehicle and no cell (blank) controls.
# [1] = target: recombinant thioredoxin reductase 1 (TrxR1) (Homo sapiens (Human), UniProt Q16881); assay: Inhibition of recombinant TrxR1 (DTNB assay); assay type: biochemical; conditions: 30 nM TrxR1, 250 μM NADPH, 15 minutes incubation, 2 mM DTNB; read-out: TrxR inhibition
# Chain of recombinant thioredoxin reductase 1 (TrxR1) (Q16881 151-649): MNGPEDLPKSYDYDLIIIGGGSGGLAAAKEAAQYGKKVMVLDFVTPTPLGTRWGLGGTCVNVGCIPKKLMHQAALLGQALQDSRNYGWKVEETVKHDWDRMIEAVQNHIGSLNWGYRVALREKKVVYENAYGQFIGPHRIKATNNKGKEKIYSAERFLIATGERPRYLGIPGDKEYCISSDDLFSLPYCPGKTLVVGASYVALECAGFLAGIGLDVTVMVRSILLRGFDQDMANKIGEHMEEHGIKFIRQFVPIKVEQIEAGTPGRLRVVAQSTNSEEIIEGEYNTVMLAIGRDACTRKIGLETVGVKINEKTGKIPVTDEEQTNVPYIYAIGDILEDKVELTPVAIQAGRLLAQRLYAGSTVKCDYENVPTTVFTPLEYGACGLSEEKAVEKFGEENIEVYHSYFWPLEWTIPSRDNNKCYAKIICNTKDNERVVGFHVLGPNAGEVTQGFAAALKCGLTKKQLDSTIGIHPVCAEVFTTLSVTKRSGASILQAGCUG
# Method: (§2) Small molecule inhibition of recombinant thioredoxin reductase 1 (TrxR1) and gluthathione reductase (GR) was examined in 96-well plate format. 30 nM TrxR1 was incubated in the presence of 250 μM NADPH, 0.1 mg/ml BSA, and various concentrations of the compounds (1% DMSO final) in 50 mM Tris (pH 7.5) and 2 mM EDTA buffer for 15 minutes. Following the incubation period, 2 mM DTNB was added to each well and the change in O.D. at 412 nm was followed. Percent activity was determined using DMSO vehicle and no TrxR1 (blank) controls. 2 nM GR was incubated in the presence of 250 μM NADPH, 0.1 mg/ml BSA, and various concentrations of compounds (1% DMSO final) in 50 mM Tris (pH 7.5) and 2 mM EDTA buffer for 15 minutes. Following the incubation period, 1 mM GSSG was added to each well and the change in O.D. at 340 nm was followed. Percent activity was determined using DMSO vehicle and no GR (blank) controls.
# [2] = target: gluthathione reductase (GR) (Homo sapiens (Human), UniProt P00390); assay: Inhibition of recombinant GR (GSSG assay); assay type: biochemical; conditions: 2 nM GR, 250 μM NADPH, 15 minutes incubation, 1 mM GSSG
# Chain of gluthathione reductase (GR) (P00390 44-522): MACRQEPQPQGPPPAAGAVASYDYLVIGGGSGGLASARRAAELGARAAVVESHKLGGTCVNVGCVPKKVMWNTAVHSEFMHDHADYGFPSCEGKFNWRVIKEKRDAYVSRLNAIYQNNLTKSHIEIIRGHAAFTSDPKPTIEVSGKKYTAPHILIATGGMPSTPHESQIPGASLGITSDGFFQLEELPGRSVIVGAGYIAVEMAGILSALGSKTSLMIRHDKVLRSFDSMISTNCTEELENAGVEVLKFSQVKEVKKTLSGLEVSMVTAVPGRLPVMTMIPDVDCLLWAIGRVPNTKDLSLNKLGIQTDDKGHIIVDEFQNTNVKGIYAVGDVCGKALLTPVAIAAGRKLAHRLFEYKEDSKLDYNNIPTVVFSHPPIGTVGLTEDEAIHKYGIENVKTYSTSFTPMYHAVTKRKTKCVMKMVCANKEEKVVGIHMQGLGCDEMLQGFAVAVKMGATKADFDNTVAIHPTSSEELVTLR
# Method: as §2
# MDA-MB-468 = assay: Cancer cell viability assay (MTT), MDA-MB-468; assay type: cell-based; conditions: 10% FBS media
# Method: (§3) Breast cancer and glioblastoma cell lines were plated 4000 cells/well in 96-well plates in the presence of 10% FBS media. The following day cells were treated with various concentrations of example compounds (0.1% DMSO final) and incubated for 72 hrs. After the incubation An MTT assay was performed to access cell viability. Percent of viability was determined using DMSO vehicle and no cell (blank) controls.
# MDA-MB-231 = assay: Cancer cell viability assay (MTT), MDA-MB-231; assay type: cell-based; conditions: 10% FBS media
# Method: as §3
# U-87 MG = assay: Cancer cell viability assay (MTT), U-87 MG; assay type: cell-based; conditions: 72 hrs, 10% FBS media
# Method: as §3
# FaDu cells = assay: Head and neck cancer cell viability assay (Cell-Quanti Blue); assay type: cell-based; conditions: Homo sapiens, 72 hrs, 10% FBS media containing 25 nM selenite
# Method: as §1, with “FaDu” for “MDA-MB-231”, “the compound of Example 1” for “compounds”, “Cell-Quanti” for “Alamar”
SMILES,IC50 (MDA-MB-231 cells) [nM],IC50 [1] [nM],IC50 [2] [nM],IC50 (MDA-MB-468; 72 hrs) [nM],IC50 (MDA-MB-231; 72 hrs) [nM],IC50 (U-87 MG) [nM],"IC50 (MDA-MB-468; Homo sapiens, MDA-MB-468, 72 hrs) [nM]","IC50 (MDA-MB-231; Homo sapiens, MDA-MB-231, 72 hrs) [nM]",IC50 (FaDu cells) [nM],"IC50 (U-87 MG; Homo sapiens, U-87 MG) [nM]"
"COc1ccc([N+](=O)[O-])c(S(=O)(=O)c2ncccn2)n1 [Example 5, 2-((6-methoxy-3-nitropyridin-2-yl)sulfonyl)pyrimidine]",4540,10.8,> 100000,–,–,–,–,–,–,–
"COc1ccc([N+](=O)[O-])c(S(=O)(=O)c2ccncc2)n1 [Example 4, 6-methoxy-3-nitro-2-(pyridin-4-ylsulfonyl)pyridine]",> 100000,0.854,11200,–,–,–,–,–,–,–
"COc1ccc([N+](=O)[O-])c(S(=O)(=O)c2ccccn2)n1 [Example 1, 6-Methoxy-3-nitro-2-(pyridin-2-ylsulfonyl)pyridine]",3610,26.8,64200,–,–,–,4340,2970,1610,8200
"CN(C)c1ccc([N+](=O)[O-])c(S(=O)(=O)c2ccccn2)n1 [Example 3, 6-Dimethylamino-3-nitro-2-(pyridin-2-ylsulfonyl)pyridine]",–,558,> 100000,–,–,–,–,–,2890,–
"O=[N+]([O-])c1ccc(Cl)nc1S(=O)(=O)c1ccccn1 [Example 2, 6-Chloro-3-nitro-2-(pyridin-2-ylsulfonyl)pyridine]",–,56.9,9890,–,–,–,–,–,610,–

# More lines, now with the values ahead:
IC50 (MDA-MB-231 cells) [nM],IC50 [1] [nM],IC50 [2] [nM],IC50 (MDA-MB-468; 72 hrs) [nM],IC50 (MDA-MB-231; 72 hrs) [nM],IC50 (U-87 MG) [nM],"IC50 (MDA-MB-468; Homo sapiens, MDA-MB-468, 72 hrs) [nM]","IC50 (MDA-MB-231; Homo sapiens, MDA-MB-231, 72 hrs) [nM]",IC50 (FaDu cells) [nM],"IC50 (U-87 MG; Homo sapiens, U-87 MG) [nM]",SMILES
–,5.5,–,960,1020,2530,–,–,–,–,"COc1ccc([N+](=O)[O-])c([S+]([O-])c2ccccn2)n1 (stereo not drawn) [Example 8, 6-Methoxy-3-nitro-2-(pyridin-2-ylsufinyl)-pyridine]"
10800,3.99,> 100000,–,–,–,–,–,–,–,"COc1ccc([N+](=O)[O-])c(S(=O)(=O)c2ncc[nH]2)n1 [Example 6, 2-((1H-imidazol-2-yl)sulfonyl)-6-methoxy-3-nitropyridine]"
3090,6.9,> 100000,–,–,–,–,–,45700,–,"COc1ccc([N+](=O)[O-])c(S(=O)(=O)c2nc(C)cs2)n1 [Example 7, 2-((6-methoxy-3-nitropyridin-2-yl)sulfonyl)-4-methylthiazole]"
